Reference: patent publication US12071414B2, “Apelin receptor agonists and methods of use thereof” (Sanford Burnham Prebys Medical Discovery Institute, priority 2015, dated 2024)

Molecular target: T1, human apelin receptor (APJ, AGTRL-one, APLNR) (Homo sapiens, UniProt P35414)
T1 construct: host or cells: Chinese hamster ovary cells, stably integrated receptor
T1 sequence (P35414 1-380): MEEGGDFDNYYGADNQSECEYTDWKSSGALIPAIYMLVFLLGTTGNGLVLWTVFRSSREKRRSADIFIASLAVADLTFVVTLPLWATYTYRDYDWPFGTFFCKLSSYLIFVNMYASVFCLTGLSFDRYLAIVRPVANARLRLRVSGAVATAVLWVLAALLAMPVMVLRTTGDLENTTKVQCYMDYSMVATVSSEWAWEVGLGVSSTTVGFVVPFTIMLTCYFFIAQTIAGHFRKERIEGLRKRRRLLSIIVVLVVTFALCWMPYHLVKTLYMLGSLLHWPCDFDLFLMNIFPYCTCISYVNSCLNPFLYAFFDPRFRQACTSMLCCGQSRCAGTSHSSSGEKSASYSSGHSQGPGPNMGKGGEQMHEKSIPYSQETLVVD
Assay: cell-based cAMP TR-FRET assay of apelin receptor activation
Settings: CHO cells expressing human APJ, forskolin-stimulated cAMP, 0.5 h incubation, 50% of control (apelin-13, 1 nM) response; read-out: Potency Category (EC50)
Procedure: The assays disclosed herein were performed using cell lines from DiscoveX, Inc. Biological activity was determined to the cell—based assay. This assay detects activation of the receptor by reporting on intracellular cyclic adenosine monophosphate (cAMP) level. Chinese hamster ovary cells engineered to express the stably integrated human apelin receptor (APJ, AGTRL—one, APLNR), pleaded into the wells of the microtiter plate. Cells were stimulated with […] to increase intracellular cyclic AMP. Immediately following, compounds were added to the range of final concentrations 0.0-100 μM, in DMSO (not to exceed a final DMSO concentration greater than 1% ν/ν), and allowed to incubate with the cells for 0.5 h. At the end of the incubation, cells were lysed to stop APJ signaling and cAMP was quantified using a commercially available competitive immunoassay kit that applies homogenous time—resolved florescence energy transfer (TR—FRET). The assay is based on the competition between a europium (Eu) chelate—labeled cAMP donor tracer and cellular cAMP for binding sites on a cAMP—specific monoclonal antibody labeled with an acceptor fluorophore. When antibodies are bound to the cAMP tracer light emissions at 320 nm stimulate the energy transfer from the donor to the acceptor, which in turn emits light at 665 nm. In the presence of competitive unlabeled cAMP (derived from the activity of the receptor or forskolin-stimulated production of cAMP), the labelled cAMP tracer is dissociated from the cAMP antibody, resulting in a loss of FRET signal. The amount of light emitted by the FRET is inversely proportional to the cAMP generated by the cell/receptor system. Potency and efficacy at APJ are reported in reference to the canonical APJ receptor agonist apelin—13 when tested at 1 nM. […] Compound efficacy (% response) is reported as a percentage of the maximal apein-13 response at 1 nM (control). Potencies were calculated by fitting a […] logistic curve to concentration response consisting of at least 10 discrete data points spanning effective range of the compounds in the cell-based assay that measures cAMP. […] Category B is 200-500 nM; Category C is 100-200 nM; Category D is 50-100 nM; and Category E is <50 nM.

EC50 [nM] | SMILES
> 500 | COc1cc2nc(NC(=O)Cc3cccc(S(=O)(=O)C4CCCC4)c3)sc2cc1OC
50 to 100 | CCS(=O)(=O)c1ccc(C(Oc2ccc(C#N)cc2)C(=O)Nc2nc3c(OC)ccc(OC)c3s2)cc1 (stereo not drawn)
< 50 | COc1cc2nc(NC(=O)C(Oc3ccc(C#N)cc3)c3ccc(S(=O)(=O)N(C)C)cc3)sc2cc1OC (stereo not drawn)
> 500 | CCS(=O)(=O)c1ccc(C(OCC(C)C)C(=O)Nc2nc3cc(OC)c(OC)cc3s2)cc1 (stereo not drawn)
50 to 100 | COc1cc2nc(NC(=O)C(Oc3ccc(OCCN4CCCC4)cc3)c3ccc(C#N)cc3)sc2cc1OC (stereo not drawn)
> 500 | COc1cc2nc(NC(=O)Cc3ccccc3C(=O)O)sc2cc1OC
> 500 | CCS(=O)(=O)c1ccc(CC(=O)Nc2nc3cc(N(C)C)ccc3s2)cc1
200 to 500 | COc1cc2nc(NC(=O)C(Oc3ccc(C#N)cc3)c3ccc(C(=O)N4CCN(C)CC4)cc3)sc2cc1OC (stereo not drawn)
> 500 | CCS(=O)(=O)c1ccc(C(Oc2ccccc2)C(=O)Nc2nc3cc(OC)c(OC)cc3s2)cc1 (stereo not drawn)
> 500 | CCS(=O)(=O)c1ccc(C(Oc2ccc(C#N)cc2)C(=O)Nc2nc3c4c(ccc3s2)OCCO4)cc1 (stereo not drawn)
> 500 | CCS(=O)(=O)c1ccc(C(Oc2ccc(C#N)cc2)C(=O)Nc2nc3ccc(N4CCOCC4)cc3s2)cc1 (stereo not drawn)
> 500 | CCS(=O)(=O)c1ccc(C(Oc2ccc(C#N)cc2)C(=O)Nc2nc3cc(OC)ccc3s2)cc1 (stereo not drawn)
> 500 | CCS(=O)(=O)c1ccc(C(OCC2CCCCC2)C(=O)Nc2nc3cc(OC)c(OC)cc3s2)cc1 (stereo not drawn)
< 50 | COc1cc2nc(NC(=O)C(Oc3ccc(C#N)cc3)c3cccc(S(=O)(=O)Cc4ccccc4)c3)sc2cc1OC (stereo not drawn)
200 to 500 | CCOc1ccc(OC(C(=O)Nc2nc3cc(OC)c(OC)cc3s2)c2ccc(S(=O)(=O)CC)cc2)cc1 (stereo not drawn)
> 500 | COc1cc2nc(NC(=O)C(Oc3ccc(-c4nnn[nH]4)cc3)c3ccc(C#N)cc3)sc2cc1OC (stereo not drawn)
> 500 | CCS(=O)(=O)c1ccc(C(OCCc2ccccc2)C(=O)Nc2nc3cc(OC)c(OC)cc3s2)cc1 (stereo not drawn)

EC50 [nM] | SMILES
200 to 500 | COc1cc2nc(NC(=O)C(Oc3ccc(C(=O)NCCN4CCOCC4)cc3)c3ccc(C#N)cc3)sc2cc1OC (stereo not drawn)
> 500 | COc1cc2nc(NC(=O)Cc3cccc(S(=O)(=O)CC4CC4)c3)sc2cc1OC
> 500 | CCS(=O)(=O)c1ccc(C(OC2CCOCC2)C(=O)Nc2nc3cc(OC)c(OC)cc3s2)cc1 (stereo not drawn)
> 500 | CCS(=O)(=O)c1cccc(C(Oc2ccc(C#N)cc2)C(=O)Nc2nc3ccc(OCCOC)cc3s2)c1 (stereo not drawn)
> 500 | CCS(=O)(=O)c1ccc(C(OCC2CCOCC2)C(=O)Nc2nc3cc(OC)c(OC)cc3s2)cc1 (stereo not drawn)
100 to 200 | COc1cc2nc(NC(=O)C(Oc3ccc(C#N)cc3)c3ccc(Cl)cc3)sc2cc1OC (stereo not drawn)
> 500 | CCCCOc1ccc(OC(C(=O)Nc2nc3cc(OC)c(OC)cc3s2)c2ccc(S(=O)(=O)CC)cc2)cc1 (stereo not drawn)
> 500 | COc1ccc(OC(C(=O)Nc2nc3cc(OC)c(OC)cc3s2)c2ccccc2S(=O)(=O)c2ccc(OC)cc2)cc1 (stereo not drawn)
> 500 | CCS(=O)(=O)c1ccc(C(Oc2ccc(C#N)cc2)C(=O)Nc2nc3ccc(F)c(OC)c3s2)cc1 (stereo not drawn)
> 500 | CCS(=O)(=O)c1ccc(C(Oc2ccc(C#N)cc2)C(=O)Nc2cc3cc(OC)c(OC)cc3[nH]2)cc1 (stereo not drawn)
> 500 | CCS(=O)(=O)c1ccc(C(OCCC(C)C)C(=O)Nc2nc3cc(OC)c(OC)cc3s2)cc1 (stereo not drawn)
> 500 | CCS(=O)(=O)c1cccc(CC(=O)Nc2nc3cc(OC)c(OC)cc3s2)c1
< 50 | COCCOc1ccc(C(Oc2ccc(C#N)cc2)C(=O)Nc2nc3cc(OC)c(OC)cc3o2)cc1 (stereo not drawn)
100 to 200 | COc1ccc(S(=O)(=O)c2ccc(C(Oc3ccc(C#N)cc3)C(=O)Nc3nc4cc(OC)c(OC)cc4s3)cc2)cc1 (stereo not drawn)
50 to 100 | COc1cc2nc(NC(=O)C(Oc3ccc(C(=O)NCCN(C)C)cc3)c3ccc(C#N)cc3)sc2cc1OC (stereo not drawn)
> 500 | CCS(=O)(=O)c1ccc(C(Oc2ccc(C#N)cc2)C(=O)Nc2nc3ncc(OC)cc3s2)cc1 (stereo not drawn)
200 to 500 | CCCCS(=O)(=O)c1ccccc1C(Oc1ccc(C#N)cc1)C(=O)Nc1nc2cc(OC)c(OC)cc2s1 (stereo not drawn)

The remaining lines, values behind:

SMILES | EC50 [nM]
CCS(=O)(=O)c1ccc(C(Oc2cccc3ccccc23)C(=O)Nc2nc3cc(OC)c(OC)cc3s2)cc1 (stereo not drawn) | > 500
CCS(=O)(=O)c1ccc(CC(=O)Nc2nc3ccc(N4CCN(C)CC4)cc3s2)cc1 | > 500
CCS(=O)(=O)c1ccc(C(Oc2ccc(C#N)c(F)c2)C(=O)Nc2nc3cc(OC)c(OC)cc3s2)cc1 (stereo not drawn) | < 50
CCCCc1ccc(OC(C(=O)Nc2nc3cc(OC)c(OC)cc3s2)c2ccc(S(=O)(=O)CC)cc2)cc1 (stereo not drawn) | > 500
CCS(=O)(=O)c1ccc(C(Oc2ccccc2C)C(=O)Nc2nc3cc(OC)c(OC)cc3s2)cc1 (stereo not drawn) | > 500
CCS(=O)(=O)c1ccc(C(Oc2ccccc2OC)C(=O)Nc2nc3cc(OC)c(OC)cc3s2)cc1 (stereo not drawn) | > 500
COc1cc2nc(NC(=O)C(Oc3ccc(C(=O)N4CCN(C)CC4)cc3)c3ccc(C#N)cc3)sc2cc1OC (stereo not drawn) | 50 to 100
CCS(=O)(=O)c1ccc(C(Oc2ccc(C#N)cc2)C(=O)Nc2nc3cc(OC)c(C)cc3s2)cc1 (stereo not drawn) | 200 to 500
COCCNC(=O)c1ccc(OC(C(=O)Nc2nc3cc(OC)c(OC)cc3s2)c2ccc(C#N)cc2)cc1 (stereo not drawn) | > 500
CCS(=O)(=O)c1ccc(C(Oc2ccc(I)cc2)C(=O)Nc2nc3cc(OC)c(OC)cc3s2)cc1 (stereo not drawn) | 200 to 500
COc1ccc(OC(C(=O)Nc2nc3cc(OC)c(OC)cc3s2)c2ccc(C#N)cc2)cc1 (stereo not drawn) | < 50
CCS(=O)(=O)c1ccc(C(Oc2ccc(C#N)cc2)C(=O)Nc2nc3cc(OCCN(C)C)c(OC)cc3s2)cc1 (stereo not drawn) | > 500
COc1cc2nc(NC(=O)C(Oc3ccc(C(=O)O)cc3)c3ccc(C#N)cc3)sc2cc1OC (stereo not drawn) | > 500
COc1cc2nc(NC(=O)C(Oc3ccc(C#N)cc3)c3ccc(S(=O)(=O)Cc4ccccc4)cc3)sc2cc1OC (stereo not drawn) | 200 to 500
CCS(=O)(=O)c1ccc(C(Oc2ccc(OC)cc2)C(=O)Nc2nc3ccc(OC)cc3s2)cc1 (stereo not drawn) | > 500
CCS(=O)(=O)c1ccc(C(Oc2cccc(C#N)c2)C(=O)Nc2nc3cc(OC)c(OC)cc3s2)cc1 (stereo not drawn) | > 500
CCS(=O)(=O)c1ccc(C(Oc2ccc(C(=O)O)cc2)C(=O)Nc2nc3cc(OC)c(OC)cc3s2)cc1 (stereo not drawn) | > 500
CCS(=O)(=O)c1ccc(C(Oc2ccc(C#N)cc2)C(=O)Nc2nc3cc(OCCF)c(OC)cc3s2)cc1 (stereo not drawn) | < 50

SMILES | EC50 [nM]
CCS(=O)(=O)c1ccc(C(OC2CCCC2)C(=O)Nc2nc3cc(OC)c(OC)cc3s2)cc1 (stereo not drawn) | > 500
COCCOc1ccc(C(Oc2ccc(C#N)cc2)C(=O)Nc2nc3cc(OC)c(OC)cc3s2)cc1 (stereo not drawn) | < 50
COC(=O)c1ccc(CC(=O)Nc2nc3cc(OC)c(OC)cc3s2)cc1 | > 500
COc1cc2nc(NC(=O)C(Oc3ccc(C#N)cc3)c3cccc(S(=O)(=O)c4ccc(Cl)cc4)c3)sc2cc1OC (stereo not drawn) | 200 to 500
CCN(CC)c1ccc2sc(NC(=O)Cc3ccc(S(=O)(=O)CC)cc3)nc2c1 | > 500
COc1cc2nc(NC(=O)C(Oc3ccc(C#N)cc3)c3ccc(S(=O)(=O)NCCN(C)C)cc3)sc2cc1OC (stereo not drawn) | < 50
CCS(=O)(=O)c1ccc(C(Oc2ccc(C3CCCCC3)cc2)C(=O)Nc2nc3cc(OC)c(OC)cc3s2)cc1 (stereo not drawn) | > 500
CCS(=O)(=O)c1ccc(C(Oc2ccc(OC)cc2)C(=O)Nc2nc3cc4c(cc3s2)OCO4)cc1 (stereo not drawn) | > 500
CCS(=O)(=O)c1ccc(C(OC)C(=O)Nc2nc3cc(OC)c(OC)cc3s2)cc1 (stereo not drawn) | > 500
CCOc1cc2nc(NC(=O)C(Oc3ccc(C#N)cc3)c3ccc(S(=O)(=O)CC)cc3)sc2cc1OC (stereo not drawn) | < 50
CCS(=O)(=O)c1ccc(C(Oc2ccc(OC)cc2)C(=O)Nc2nc3cc(OC)c(OC)cc3s2)cc1 (stereo not drawn) | > 500
CCS(=O)(=O)c1ccc(C(Nc2ccc(C)cc2)C(=O)Nc2nc3cc(OC)c(OC)cc3s2)cc1 (stereo not drawn) | > 500
COc1cc2nc(NC(=O)C(Oc3ccc(C#N)cc3)c3ccc(-c4nnn[nH]4)cc3)sc2cc1OC (stereo not drawn) | > 500
COc1cc2nc(NC(=O)C(Oc3ccc(O)cc3)c3ccc(C#N)cc3)sc2cc1OC (stereo not drawn) | > 500
CCS(=O)(=O)c1ccc(C(CC2CC2)C(=O)Nc2nc3cc(OC)c(OC)cc3s2)cc1 (stereo not drawn) | > 500
C#Cc1ccc(OC(C(=O)Nc2nc3cc(OC)c(OC)cc3s2)c2ccc(S(=O)(=O)CC)cc2)cc1 (stereo not drawn) | 100 to 200
CCS(=O)(=O)c1ccc(C(CCOC)C(=O)Nc2nc3cc(OC)c(OC)cc3s2)cc1 (stereo not drawn) | > 500
